Data as given in ChEMBL document CHEMBL1201862, “PubChem BioAssay data set” (2004).
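96-well plates; 48 h exposure; 5 concentrations. Endpoints by linear interpolation between flanking doses. Not reached: highest tested concentration assigned. Here, GI50 denotes the concentration required for 50% inhibition of growth.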 Calls of active or inactive are those of the source. Rule as the data show it: active = GI50 up to about 1.1 µM and inactive = higher.

Tests used:
Assay in all cases: DTP human tumour cell line panel, 48 h
[1] = system: Malme-3M
[2] = system: HT-29
[3] = system: HCT-116
[4] = system: A549
[5] = system: M14
[6] = system: SN12C
[7] = system: HOP-92
[8] = system: SNB-19
[9] = system: KM12
[10] = system: OVCAR-8
[11] = system: HOP-62
[12] = system: COLO 205
[13] = system: NCI-H460
[14] = system: CAKI-1
[15] = system: SF-268
[16] = system: MCF7
[17] = system: SNB-75
[18] = system: NCI-H23
[19] = system: HCC 2998
[20] = system: MDA-N

Compound	GI50 [1]	GI50 [2]	GI50 [3]	GI50 [4]	GI50 [5]	GI50 [6]	GI50 [7]	GI50 [8]	GI50 [9]	GI50 [10]	GI50 [11]	GI50 [12]	GI50 [13]	GI50 [14]	GI50 [15]	GI50 [16]	GI50 [17]	GI50 [18]	GI50 [19]	GI50 [20]
COc1cc2c(cc1OCCCN1CCN(C)CC1)N=C[C@@H]1CCCN1C2=O	2.21 µM (inactive)	1.74 µM (inactive)	2.7 µM (inactive)	2.37 µM (inactive)	1.86 µM (inactive)	3.57 µM (inactive)	0.75 µM (active)	4.06 µM (inactive)	1.57 µM (inactive)	2.58 µM (inactive)	3.44 µM (inactive)	1.02 µM (active)	2.82 µM (inactive)	1.25 µM (inactive)	3.03 µM (inactive)	1.22 µM (inactive)				
O=c1[nH]nc(N/N=C\c2ccc(Cl)cc2)c2ccccc12	22 µM (inactive)	29.5 µM (inactive)	28.2 µM (inactive)	20.1 µM (inactive)	18.7 µM (inactive)	27.5 µM (inactive)	16.9 µM (inactive)	20.4 µM (inactive)	21 µM (inactive)	24.3 µM (inactive)		19.5 µM (inactive)	20.3 µM (inactive)	18.3 µM (inactive)	23.2 µM (inactive)	22.4 µM (inactive)	22.6 µM (inactive)	23 µM (inactive)		
CC(=O)c1cccc(NC(=O)C(=O)C(C(=O)NN)c2ccccc2)c1 (configuration not stated)	> 100 µM (inactive)	> 100 µM (inactive)	> 100 µM (inactive)	> 100 µM (inactive)	> 100 µM (inactive)	> 100 µM (inactive)	> 100 µM (inactive)	> 100 µM (inactive)	> 100 µM (inactive)	> 100 µM (inactive)	> 100 µM (inactive)	> 100 µM (inactive)	> 100 µM (inactive)	> 100 µM (inactive)	> 100 µM (inactive)		> 100 µM (inactive)	> 100 µM (inactive)	51.6 µM (inactive)	
Cc1ccc2c(=O)cc(Cc3csc4ccccc34)[nH]c2n1	12.4 µM (inactive)	35.1 µM (inactive)	28.8 µM (inactive)	27.4 µM (inactive)	32 µM (inactive)	42.9 µM (inactive)		39.7 µM (inactive)	21.3 µM (inactive)	36 µM (inactive)	59.2 µM (inactive)	26.7 µM (inactive)		44.3 µM (inactive)	21.3 µM (inactive)	35.2 µM (inactive)	16.6 µM (inactive)	19.3 µM (inactive)		64.7 µM (inactive)
O=S(=O)(O)c1cc(S(=O)(=O)O)c2cc(/N=N/c3c(O)ccc4ccccc34)ccc2c1	50.7 µM (inactive)	> 100 µM (inactive)	> 100 µM (inactive)	> 100 µM (inactive)	> 100 µM (inactive)	> 100 µM (inactive)	> 100 µM (inactive)	> 100 µM (inactive)	> 100 µM (inactive)	> 100 µM (inactive)	> 100 µM (inactive)	> 100 µM (inactive)		> 100 µM (inactive)	> 100 µM (inactive)		> 100 µM (inactive)	> 100 µM (inactive)		> 100 µM (inactive)
CSCCCNC(=O)c1csc(-c2csc(C(CNC(=O)OC(C)(C)C)CNC(=O)OC(C)(C)C)n2)n1			31.4 µM (inactive)		47 µM (inactive)	61.8 µM (inactive)	43 µM (inactive)	58.3 µM (inactive)	31 µM (inactive)	33.9 µM (inactive)	33.7 µM (inactive)	34 µM (inactive)	14.5 µM (inactive)	59.6 µM (inactive)	76.2 µM (inactive)	57.9 µM (inactive)	35 µM (inactive)	36 µM (inactive)		51.4 µM (inactive)
COC(=O)NN=C1C(C)(C)C(=NNC(=O)OC)C1(C)C	> 100 µM (inactive)	> 36.9 µM (inactive)	> 45.5 µM (inactive)	> 100 µM (inactive)	> 100 µM (inactive)	> 68.2 µM (inactive)	> 100 µM (inactive)	> 100 µM (inactive)	> 100 µM (inactive)	> 41.2 µM (inactive)	> 100 µM (inactive)	> 41.6 µM (inactive)	> 100 µM (inactive)	> 85.1 µM (inactive)	> 84.1 µM (inactive)		> 100 µM (inactive)	> 48.9 µM (inactive)	> 100 µM (inactive)	
COc1cc2c(c(OC(C)=O)c1OC(C)=O)-c1ccc(SC)c(=O)cc1C(NC(C)=O)CC2 (configuration not stated)	1.34 µM (inactive)	2.04 µM (inactive)	1.36 µM (inactive)	3.73 µM (inactive)	2.96 µM (inactive)	4.52 µM (inactive)	0.741 µM (active)	2.65 µM (inactive)	0.544 µM (active)	3.66 µM (inactive)	7.59 µM (inactive)	0.998 µM (active)	3.15 µM (inactive)	11.2 µM (inactive)	1.38 µM (inactive)		0.255 µM (active)	1.92 µM (inactive)	2.51 µM (inactive)	
